Experimental data from patent US5856358A, “Mono- and disulfo-substituted anthraquinones and their use for the treatment of bone matrix disorders” (priority 1995, dated 1999).
Where two headings read alike, the source gives them in different places.

How the values were obtained:
[1] = system: copper "scavenging" of superoxide anion produced by the hypoxanthine/xanthine oxidase system; experiment: Copper "scavenging" effect (superoxide anion from hypoxanthine/xanthine oxidase system, cytochrome C); assay type: biochemical; conditions: for % Reduction (effect on copper "scavenging" action): hypoxanthine/xanthine oxidase, cytochrome c
From the text: The study involves the production of superoxide anion by means of the hypoxanthine/xanthine oxidase system and the target is the reduction in cytochrome C iron content. […] Copper chelants inhibit such a "scavenging" effect.

human cathepsin L = molecular target: T1, human cathepsin L (Homo sapiens, UniProt P07711); experiment: Effects on human cathepsin L enzymatic activity; assay type: biochemical
T1 construct: purchased Calbiochem
Protocol: (§1) Effects on human cathepsin B and L enzymatic activity
(§2) The anthraquinone monosulfonated and disulfonated compounds were dissolved in distilled water whereas the derivatives thereof were dissolved in dimethylsulfoxide. The concentration of the tested product was added to the reaction mixture in a volume of 100 μl.
(§3) Composition of the reaction mixture: 0.005M acetate buffer pH 6.0+2 mM cysteine+1 mM EDTA; Enzyme 1 U/ml (cathepsin B or L) (Calbiochem); substrate 0.2 mM Z-Phe-Arg-AMC (Novabiochem) final reaction volume 2 ml; temperature 25° C.; observation time for cathepsin B: 2 minutes; for L: 8 minutes. This is a fluorimetric determination wherein the excitation wavelength was 380 nm, the emission one being instead 460 nm. Fluorescence was read by means of a Perkin-Elmer spectrophotometer mod. LS-3B.

human cathepsin B = molecular target: T2, human cathepsin B (Homo sapiens, UniProt P07858); experiment: Effects on human cathepsin B enzymatic activity; assay type: biochemical
T2 construct: purchased Calbiochem
Protocol: as §1, §2, §3
Anthraquinone-2,6-disulfonic acid: 1-5-10 μM
Anthraquinone-1,5-disulfonic acid: 1-5-10 μM
N,N'-(p-Ethoxyphenyl)-2,6-anthraquinone-disulfonamide: 1-10 μM.

[2] = Adjuvant arthritis (Freund's complete adjuvant) in the rat: paw volume, radiography, histology; assay type: in vivo, rat (albino Sprague Dawley); conditions: for Volume increase in the oedema after 15 days, left paw / Volume increase in the oedema after 15 days, right paw: 20 mg/kg/os; for Volume increase in the oedema after 15 days, left paw: left (adjuvant-injected) rear paw, control 252 ± 26; for Volume increase in the oedema after 15 days, right paw: right rear paw, control 77 ± 29
Protocol: The test evaluates the effect of the compounds anthraquinone-2,6-disulfonicacid and N,N'-diethylanthraquinone-2,6-disulfonamide on rheumatoid arthritis in the rat induced by administration of complete Freund's adjuvant. Diacetylrhein was used as control.
For the test, albino Sprague Dawley rats weighing 200±10 g, were subdivided into four groups of six animals each. All of the compounds were administered orally at a dosage of 20 mg/kg. Arthritis was induced administering all the animals, in the left rear paw, with 5 mg of Freund's complete adjuvant suspended in 0.05 ml of paraffin oil (prior to the treatment, the paw volume of both rear paws was measured). The treatment with the tested products started 5 days after the arthritis induction and was carried out for ten days. Al the end of this time, the animals were killed to effect the analysis of the following evaluation parameters: measurement of the volume of both left and right rear paws; Rx in lateral and antero-posterior position of the tibio-tarsal articulation of the left paw; histology evaluation of the articulation of both left and right rear paws.

[3] = system: Chinese hamster ovary (CHO) cells; experiment: Test of induction of chromosomal aberrations; assay type: cell-based; conditions: for Metaphases with aberrations: + S-9; for Aberrations complex (C) / Aberrations simple (S) / Aberrations S + C: 100 metaphases
Protocol: The clastogenetic effect of rhein and of 2,6-anthraquinonedisulfonic acid, was evaluated using the test of the induction of chromosomal aberrations in cell cultures of chinese hamster ovary (CHO). In this test, the cell line was treated with the tested substances and with suitable controls, in the presence of a metabolic activation system for four hours. After that, the cell in growth exponential phase were treated with colchicine (Colcemid^R) for 90 minutes, so as to obtain a significant number of cells in metaphase and to recover them for the preparation of the chromosome suspension. As the positive standard, cyclophosphamide was used (1-5-10-12.5-25 μg/ml).
The toxicity of the tested compounds was evaluated by means of the assay of the efficiency of plating, treating the cells for four hours, then seeding them at a concentration of 200 cells/5 ml of fresh culture medium.
On the ground of the results obtained by means of this test, dosages were selected for the treatment in the test of induction of chromosomal aberrations, so as not to exceed, with the highest dosage, 50% toxicity levels.
The chromosomal aberrations were recorded describing the type of structural damage. The numeric aberrations and gaps were discarded. Metaphases showing a good chromosomal opening, a good staining and an acceptable chromosome number (20±2) were selected. For statistical evaluations of the results, the quadratic Chi test was used.

ceruloplasmin = conditions: acute phase of arthritis inflammation; background art; cited from earlier work
[4] = background art; cited from earlier work
[5] = background art (U.S. Pat. No. 4,244,968); cited from earlier work
[6] = system: superoxide anion from NADPH-dependent biological systems; conditions: Mian M. et al. 1987; cited from earlier work
cathepsin G = conditions: from man; Raimondi 1982, Zembower 1992; cited from earlier work
elastase = conditions: from man; Raimondi 1982, Zembower 1992; cited from earlier work
[7] = M (mean of experiments 1-3), read-out: % Inhibition
[8] = experiment n. 1, read-out: % Inhibition
[9] = experiment n. 2, read-out: % Inhibition
[10] = experiment n. 3, read-out: % Inhibition
[11] = 20 mg/kg orally, ten days, right paw

T1 sequence (P07711 114-288 limits assumed): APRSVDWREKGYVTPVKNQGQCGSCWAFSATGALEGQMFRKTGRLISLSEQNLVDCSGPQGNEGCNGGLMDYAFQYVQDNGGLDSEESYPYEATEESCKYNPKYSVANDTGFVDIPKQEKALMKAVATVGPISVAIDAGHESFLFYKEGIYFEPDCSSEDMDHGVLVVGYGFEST
T1 sequence (P07711 292-333 limits assumed): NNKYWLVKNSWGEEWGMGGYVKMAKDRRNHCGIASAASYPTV

O=C1c2cccc(S(=O)(=O)O)c2C(=O)c2cccc(S(=O)(=O)O)c21 [1,5-anthraquinonedisulfonic acid, Anthraquinone-1,5-disulfonic acid]
% Reduction (effect on copper "scavenging" action) [1]: 4% | inhibition at 1 µM (human cathepsin L; M (mean of tests 1-3)): 8.1% | inhibition at 1 µM (human cathepsin L; test n. 1): 10.5% | inhibition at 1 µM (human cathepsin L; test n. 2): 8.4% | inhibition at 1 µM (human cathepsin L; test n. 3): 5.5% | inhibition at 10 µM (human cathepsin L; M (mean of tests 1-3)): 54.3% | inhibition at 10 µM (human cathepsin L; test n. 1): 48.6% | inhibition at 10 µM (human cathepsin L; test n. 2): 60.5% | inhibition at 10 µM (human cathepsin L; test n. 3): 53.9% | inhibition at 1 µM (human cathepsin B; [7]): 3.4% | inhibition at 1 µM (human cathepsin B; [8]): 4.1% | inhibition at 1 µM (human cathepsin B; [9]): 3.6% | inhibition at 1 µM (human cathepsin B; [10]): 2.5% | inhibition at 5 µM (human cathepsin B; [7]): 9.6% | inhibition at 5 µM (human cathepsin B; [8]): 10.3% | inhibition at 5 µM (human cathepsin B; [9]): 7.2% | inhibition at 5 µM (human cathepsin B; [10]): 11.4% | inhibition at 10 µM (human cathepsin B; [7]): 44.4% | inhibition at 10 µM (human cathepsin B; [8]): 55.1% | inhibition at 10 µM (human cathepsin B; [9]): 36.6% | inhibition at 10 µM (human cathepsin B; [10]): 41.6%

O=C1c2ccccc2C(=O)c2c1cccc2S(=O)(=O)O [1-AQ, 1-anthraquinonesulfonic acid]
inhibition of copper "scavenging" effect (in words) [1]: nearly inactive | % Reduction (effect on copper "scavenging" action) [1]: 3%

O=C1c2ccc(S(=O)(=O)O)cc2C(=O)c2ccc(S(=O)(=O)O)cc21 [2,6-anthraquinonedisulfonic acid]
inhibition (reduction) of the increase in the volume of the left rear paw ([2]; 20 mg/kg orally, ten days): 18.6% | inhibition of the increase in the volume of the right paw [2, 11]: 67.5% | Volume increase in the oedema after 15 days, left paw [2]: 205 ± 41 | Volume increase in the oedema after 15 days, right paw [2]: 25 ± 20 | Metaphases with aberrations ([3]; 50 μg/ml, 100 total metaphases, N.S.): 2 | Metaphases with aberrations ([3]; 100 μg/ml, 100 total metaphases, N.S.): 4 | Metaphases with aberrations ([3]; 150 μg/ml, 100 total metaphases, N.S.): 8 | Metaphases with aberrations ([3]; 200 μg/ml, 100 total metaphases, N.S.): 8 | Metaphases with aberrations ([3]; 250 μg/ml, 100 total metaphases, N.S.): 6 | induction of chromosomal aberrations (in words) ([3]; 50-250 μg/ml): induces no chromosomal aberrations | inhibition at 1 µM (human cathepsin L; M (mean of tests 1-3)): 35.6% | inhibition at 1 µM (human cathepsin L; test n. 1): 39.6% | inhibition at 1 µM (human cathepsin L; test n. 2): 31.4% | inhibition at 1 µM (human cathepsin L; test n. 3): 35.8% | inhibition at 10 µM (human cathepsin L; M (mean of tests 1-3)): 94.5% | inhibition at 10 µM (human cathepsin L; test n. 1): 92.1% | inhibition at 10 µM (human cathepsin L; test n. 2): 96.5% | inhibition at 10 µM (human cathepsin L; test n. 3): 94.8% | inhibition at 1 µM (human cathepsin B; M (mean of experiments 1-3)): 40.7% | inhibition at 1 µM (human cathepsin B; experiment n. 1): 43.7% | inhibition at 1 µM (human cathepsin B; experiment n. 2): 33.7% | inhibition at 1 µM (human cathepsin B; experiment n. 3): 38.5% | inhibition at 5 µM (human cathepsin B; M (mean of experiments 1-3)): 70.1% | inhibition at 5 µM (human cathepsin B; experiment n. 1): 68.5% | inhibition at 5 µM (human cathepsin B; experiment n. 2): 65.8% | inhibition at 5 µM (human cathepsin B; experiment n. 3): 76% | inhibition at 10 µM (human cathepsin B; M (mean of experiments 1-3)): 94.9% | inhibition at 10 µM (human cathepsin B; experiment n. 1): 98.9% | inhibition at 10 µM (human cathepsin B; experiment n. 2): 98.2% | inhibition at 10 µM (human cathepsin B; experiment n. 3): 87.7%

O=C1c2ccccc2C(=O)c2cc(S(=O)(=O)O)ccc21 [2-AQ, 2-anthraquinonesulfonic acid]
inhibition of copper "scavenging" effect (in words) [1]: nearly inactive | % Reduction (effect on copper "scavenging" action) [1]: 5%

O=P1(N(CCCl)CCCl)NCCCO1 (centres unmarked) [CPS, Cyclophosphamide]
Metaphases with aberrations ([3]; 1 μg/ml, 100 total metaphases, N.S.): 10 | Metaphases with aberrations ([3]; 5 μg/ml, 100 total metaphases, P < 0.001): 25 | Metaphases with aberrations ([3]; 10 μg/ml, 32 total metaphases, P < 0.001, control 13 of 220): 12 | Aberrations complex (C) ([3]; CPS 12.5 μg/ml): 44 | Aberrations simple (S) ([3]; CPS 12.5 μg/ml): 0 | Aberrations S + C ([3]; CPS 12.5 μg/ml, P < 0.001): 44 | Aberrations S + C ([3]; CPS 25 μg/ml, P < 0.001, control 12 of 400): 87 | Aberrations complex (C) ([3]; CPS 25 μg/ml, control 4 of 400): 87 | Aberrations simple (S) ([3]; CPS 25 μg/ml, control 8 of 400): 0

CC(=O)Oc1cccc2c1C(=O)c1c(OC(C)=O)cc(C(=O)O)cc1C2=O [Diacetylrhein, diacetylrhein, reference compound]
inhibition of the formation of ceruloplasmin (ceruloplasmin): inhibits the formation of ceruloplasmin | copper chelation [4]: copper chelating agent | inhibition (reduction) of the increase in the volume of the left rear paw ([2]; 20 mg/kg orally, ten days): 8.3% | effect on the increase in the volume of the right paw (in words) [2, 11]: complete lack in activity | formation of fibrous tissue in the articulation (histological examination) ([2]; 20 mg/kg orally, tibio-tarsal articulation): remarkably present | Volume increase in the oedema after 15 days, left paw [2]: 231 ± 22 | Volume increase in the oedema after 15 days, right paw [2]: 92 ± 30 | calcium chelation [5]: calcium chelating agent

CCOc1ccc(NS(=O)(=O)c2ccc3c(c2)C(=O)c2ccc(S(=O)(=O)Nc4ccc(OCC)cc4)cc2C3=O)cc1 [N,N'-(p-Ethoxyphenyl)-2,6-anthraquinonedisulfonamide]
inhibition at 1 µM (human cathepsin L; M (mean of tests 1-3)): 8.8% | inhibition at 1 µM (human cathepsin L; test n. 1): 8.5% | inhibition at 1 µM (human cathepsin L; test n. 2): 7.1% | inhibition at 1 µM (human cathepsin L; test n. 3): 10.9% | inhibition at 10 µM (human cathepsin L; M (mean of tests 1-3)): 55.2% | inhibition at 10 µM (human cathepsin L; test n. 1): 53.6% | inhibition at 10 µM (human cathepsin L; test n. 2): 48.1% | inhibition at 10 µM (human cathepsin L; test n. 3): 63.8% | inhibition at 1 µM (human cathepsin B; [7]): 19% | inhibition at 1 µM (human cathepsin B; [8]): 23.7% | inhibition at 1 µM (human cathepsin B; [9]): 18.6% | inhibition at 1 µM (human cathepsin B; [10]): 14.8% | inhibition at 10 µM (human cathepsin B; [7]): 80.2% | inhibition at 10 µM (human cathepsin B; [8]): 76.6% | inhibition at 10 µM (human cathepsin B; [9]): 80.6% | inhibition at 10 µM (human cathepsin B; [10]): 83.4%

CCNS(=O)(=O)c1ccc2c(c1)C(=O)c1ccc(S(=O)(=O)NCC)cc1C2=O [N,N'-Diethyl-2,6-anthraquinonedisulfonamide]
inhibition (reduction) of the increase in the volume of the left rear paw ([2]; 20 mg/kg orally, ten days): 21.4% | inhibition of the increase in the volume of the right paw [2, 11]: 62.3% | Volume increase in the oedema after 15 days, left paw [2]: 198 ± 31 | Volume increase in the oedema after 15 days, right paw [2]: 29 ± 12

O=C(O)c1cc(O)c2c(c1)C(=O)c1cccc(O)c1C2=O [Rhein, rhein]
inhibition of copper "scavenging" effect (in words) [1]: inhibits said effect | % Reduction (effect on copper "scavenging" action) [1]: 45% | induction of chromosomal aberrations (in words) ([3]; doses of 100 and 200 μg/ml): positive | Aberrations complex (C) ([3]; rhein 25 μg/ml): 1 | Aberrations simple (S) ([3]; rhein 25 μg/ml): 1 | Aberrations S + C ([3]; rhein 25 μg/ml, N.S.): 2 | Aberrations complex (C) ([3]; rhein 50 μg/ml): 3 | Aberrations simple (S) ([3]; rhein 50 μg/ml): 1 | Aberrations S + C ([3]; rhein 50 μg/ml, N.S.): 4 | Aberrations complex (C) ([3]; rhein 100 μg/ml): 6 | Aberrations simple (S) ([3]; rhein 100 μg/ml): 3 | Aberrations S + C ([3]; rhein 100 μg/ml, P < 0.05): 9 | Aberrations complex (C) ([3]; rhein 200 μg/ml): 5 | Aberrations simple (S) ([3]; rhein 200 μg/ml): 3 | Aberrations S + C ([3]; rhein 200 μg/ml, P < 0.05): 8 | inhibition of formation and release of the superoxide anion [6]: inhibits the formation and release of the superoxide anion | inhibition of cathepsin G activity (cathepsin G): inhibits | inhibition of elastase activity (elastase): inhibits
